Test results taken from patent US20200268768A1, “CENICRIVIROC COMBINATION THERAPY FOR THE TREATMENT OF FIBROSIS” (Tobira Therapeutics, Inc., priority 2015, published 2020).
“And” between values parts separate entries of the source, which are not always exact repeats. Equal entries are not always repeated.

Columns and labels:
[1] = tested on: STAM mouse model of Non-alcoholic Steatohepatitis; experiment: STAM mouse model of NASH, anti-NASH/fibrosis effects at week 9; assay type: in vivo, mice; design: key to Hepatocyte ballooning score 0, number of mice / Hepatocyte ballooning score 1, number of mice: 0: None; 1: Few balloon cells; 2: Many cells/prominent ballooning; TNF-a mRNA expression level / MCP-1 mRNA expression level / Collagen Type 1 mRNA expression level / TIMP-1 mRNA expression level: scale not given here; details: for Collagen Type 1 mRNA expression level / MCP-1 mRNA expression level / TIMP-1 mRNA expression level / TNF-a mRNA expression level: liver, quantitative RT-PCR; for Collagen Type 1 mRNA expression level / MCP-1 mRNA expression level / TIMP-1 mRNA expression level / TNF-a mRNA expression level / Body weight / F4/80-positive area (inflammation area) / F4/80 and CD206-positive cells / F4/80 and CDE 16/32-positive cells / Liver hydroxyproline / Liver triglyceride / Liver weight / Liver-to-body weight ratio / M1/M2 ratio / NAFLD Activity Score (NAS) / Oil red-positive area (fat deposition area) / Plasma ALT / Plasma MCP-1 / TUNEL-positive cells / Whole blood glucose / Sirius red-positive area (fibrosis area) / Modified Sirius red-positive rea: mean ± SD; for Sirius red-positive area (fibrosis area): perivascular space included; for Modified Sirius red-positive rea: perivascular space subtracted
Procedure: NASH was induced in male mice by a single injection of 200 μg streptozotocin 2 days after birth (causing impaired glucose control), followed by a high fat diet from 4 weeks of age. […] Animals were sacrificed at 9 weeks of age, and biochemical, gene expression, and histologic evaluations of the liver were conducted. This in vivo efficacy study was performed to examine the effects of Cenicriviroc in the STAM™ mouse model of Non-alcoholic Steatohepatitis. […] [table]

[2] = tested on: adults with CCR5 tropic HIV-1; experiment: Study 202 post-hoc APRI and FIB-4 fibrosis index scores; assay type: in vivo, human
Procedure: APRI and FIB-4 scores were calculated. Change in score category from baseline (BL) to Weeks 24 and 48 was assessed in patients with non-missing data. Correlations between changes from BL in APRI and FIB-4 scores, and MCP-1 (CCR2 ligand) and sCD14 (inflammatory biomarker) levels were evaluated.

[3] = CVC-high 100 mg/kg/day oral, listed as Cenicriviroc
[4] = CVC-low 20 mg/kg/day oral, listed as Cenicriviroc
[5] = Week 24, CVC pooled 100 and 200 mg, or EFV
[6] = Week 48, CVC pooled 100 and 200 mg, or EFV

## CCCCOCCOc1ccc(-c2ccc3c(c2)C=C(C(=O)Nc2ccc([S@@+]([O-])Cc4cncn4CCC)cc2)CCCN3CC(C)C)cc1 [CVC, (S)-8-[4-(2-Butoxyethoxy)phenyl]-1-isobutyl-N-(4-{[(1-propyl-1H-imidazol-5-yl)methyl]sulfinyl}phenyl)-1,2,3,4-tetrahydro-1-benzazocine-5-carboxamide]
[1]; CVC 20 and 100 mg/kg/day, real-time RT-PCR
  Decrease of collagen type 1 mRNA in whole liver lysates: 27-37%
[1]; CVC-high 100 mg/kg/day oral
  Collagen Type 1 mRNA expression level: 0.73±0.04
  MCP-1 mRNA expression level: 1.00±0.53
  TIMP-1 mRNA expression level: 0.80±0.20
  TNF-a mRNA expression level: 1.09±0.23
  Body weight: 18.7 ± 0.9 g
  F4/80-positive area (inflammation area): 4.96±0.60%
  F4/80 and CD206-positive cells: 33.1±3.0%
  F4/80 and CDE 16/32-positive cells: 41.5±8.2%
  Liver hydroxyproline: 0.62±0.09 ug/mg total protein
  Liver triglyceride: 51.7±14.1 mg/g liver
  Liver weight: 1307 ± 119 mg
  Liver-to-body weight ratio: 7.0±0.8%
  M1/M2 ratio: 125.1±21.9%
  NAFLD Activity Score (NAS): 3.7±0.8
  Oil red-positive area (fat deposition area): 7.23±3.59%
  Plasma ALT: 51±13 U/L and 52±13 U/L
  Plasma MCP-1: 91 ± 14 pg/mL
  TUNEL-positive cells: 39.0±5.3%
  Whole blood glucose: 585 ± 91 mg/dL
[1]; [3]
  Collagen Type 1 mRNA expression level: 0.73 ± 0.04
  MCP-1 mRNA expression level: 1.00 ± 0.53
  TIMP-1 mRNA expression level: 0.80 ± 0.20
  TNF-a mRNA expression level: 1.09 ± 0.23
  Body weight: 18.7 ± 0.9 g
  F4/80-positive area (inflammation area): 4.96 ± 0.60%
  F4/80 and CD206-positive cells: 33.1 ± 3.0%
  F4/80 and CDE 16/32-positive cells: 41.5 ± 8.2%
  Liver hydroxyproline: 0.62 ± 0.09 ug/mg total protein
  Liver triglyceride: 51.7 ± 14.1 mg/g liver
  Liver weight: 1307 ± 119 mg
  Liver-to-body weight ratio: 7.0 ± 0.8%
  M1/M2 ratio: 125.1 ± 21.9%
  NAFLD Activity Score (NAS): 3.7 ± 0.8
  Oil red-positive area (fat deposition area): 7.23 ± 3.59%
  Plasma ALT: 52 ± 13 U/L
  Plasma MCP-1: 91 ± 14 pg/mL
  TUNEL-positive cells: 39.0 ± 5.3%
  Whole blood glucose: 585 ± 91 mg/dL
  Sirius red-positive area (fibrosis area): 0.64 ± 0.19%
  Modified Sirius red-positive rea: 0.20 ± 0.06%
[1]; CVC-high 100 mg/kg/day, Sirius red, individual mice 301-306, listed as Cenicriviroc
  Modified positive area, per mouse: 0.18% and 0.20% and 0.12% and 0.26% and 0.17% and 0.27%
[1]; CVC-high 100 mg/kg/day, Sirius red, individual mice 301-306, photos 1-5, listed as Cenicriviroc
  Modified positive area, per photo: 0.26% and 0.06% and 0.10% and 0.41% and 0.09% (2×) and 0.23% (2×) and 0.17% (2×) and 0.28% (2×) and 0.22% (2×) and 0.08% (3×) and 0.05% and 0.32% and 0.07% (3×) and 0.16% and 0.20% (2×) and 0.68% and 0.27% and 0.12% and 0.11% and 0.67%
[1]; CVC-high 100 mg/kg/day, n=6
  Hepatocyte ballooning score 0, number of mice: 1
  Hepatocyte ballooning score 1, number of mice: 2
  Hepatocyte ballooning score 2, number of mice: 3
  Lobular inflammation score 1, number of mice: 3 (>4 foci/200x)
  Lobular inflammation score 2, number of mice: 3 (>4 foci/200x)
  Steatosis score 0, number of mice: 1 (5-33%)
  Steatosis score 1, number of mice: 5
[1]; CVC-low 20 mg/kg/day oral
  Collagen Type 1 mRNA expression level: 0.63±0.10
  MCP-1 mRNA expression level: 1.05±0.50
  TIMP-1 mRNA expression level: 0.75±0.32
  TNF-a mRNA expression level: 1.16±0.39
  Body weight: 19.5 ± 2.0 g
  F4/80-positive area (inflammation area): 4.77±1.02%
  F4/80 and CD206-positive cells: 34.7±6.3%
  F4/80 and CDE 16/32-positive cells: 38.7±7.6%
  Liver hydroxyproline: 0.63±0.05 ug/mg total protein
  Liver triglyceride: 48.5±16.1 mg/g liver
  Liver weight: 1334 ± 99 mg
  Liver-to-body weight ratio: 6.9±1.0%
  M1/M2 ratio: 112.3±17.0%
  NAFLD Activity Score (NAS): 4.0±0.6
  Oil red-positive area (fat deposition area): 6.51±3.88%
  Plasma ALT: 58±12 U/L
  Plasma MCP-1: 68 ± 16 pg/mL
  TUNEL-positive cells: 43.3±2.9%
  Whole blood glucose: 585 ± 91 mg/dL
[1]; [4]
  Collagen Type 1 mRNA expression level: 0.63 ± 0.10
  MCP-1 mRNA expression level: 1.05 ± 0.50
  TIMP-1 mRNA expression level: 0.75 ± 0.32
  TNF-a mRNA expression level: 1.16 ± 0.39
  Body weight: 19.5 ± 2.0 g
  F4/80-positive area (inflammation area): 4.77 ± 1.02%
  F4/80 and CD206-positive cells: 34.7 ± 6.3%
  F4/80 and CDE 16/32-positive cells: 38.7 ± 7.6%
  Liver hydroxyproline: 0.63 ± 0.05 ug/mg total protein
  Liver triglyceride: 48.5 ± 16.1 mg/g liver
  Liver weight: 1334 ± 99 mg
  Liver-to-body weight ratio: 6.9 ± 1.0%
  M1/M2 ratio: 112.3 ± 17.0%
  NAFLD Activity Score (NAS): 4.0 ± 0.6
  Oil red-positive area (fat deposition area): 6.51 ± 3.88%
  Plasma ALT: 58 ± 12 U/L
  Plasma MCP-1: 68 ± 16 pg/mL
  TUNEL-positive cells: 43.3 ± 2.9%
  Whole blood glucose: 585 ± 91 mg/dL
  Sirius red-positive area (fibrosis area): 0.66 ± 0.16%
  Modified Sirius red-positive rea: 0.29 ± 0.14%
[1]; CVC-low 20 mg/kg/day, n=6
  Hepatocyte ballooning score 1, number of mice: 3
  Hepatocyte ballooning score 2, number of mice: 3
  Lobular inflammation score 1, number of mice: 3 (>4 foci/200x)
  Lobular inflammation score 2, number of mice: 3 (>4 foci/200x)
  Steatosis score 1, number of mice: 6
[1]; high dose 100 mg/kg/day
  Increase in plasma monocyte chemotactic protein-1 levels: 1.5 fold
[1]; low dose 20 mg/kg/day
  Increase in plasma monocyte chemotactic protein-1 levels: 1.1 fold
[2]; [5]
  Subjects in APRI category 0.5-1.5: 7%
  Subjects in APRI category <0.5: 93%
  Subjects in FIB-4 category 1.45-3.25: 7%
  Subjects in FIB-4 category <1.45: 93%
  Subjects with APRI decreased 1 category from baseline: 14%
  Subjects with FIB-4 decreased 1 category from baseline: 13%
[2]; [6]
  Subjects in APRI category 0.5-1.5: 8%
  Subjects in APRI category <0.5: 91%
  Subjects in APRI category >1.5: 1%
  Subjects in FIB-4 category 1.45-3.25: 5%
  Subjects in FIB-4 category <1.45: 94%
  Subjects in FIB-4 category >3.25: 1%
  Subjects with APRI decreased 1 category from baseline: 10%
  Subjects with FIB-4 decreased 1 category from baseline: 14%
[2]; all CVC-treated subjects, pooled CVC 100 mg and 200 mg
  Subjects with improvements in APRI and FIB-4 scores over time: ≥ 10%
